Test in all cases: DTP human tumour cell line panel, 48 h
The test system of assay [1] is NCI-H23 lung.
Assay [2] deals with KM12 colon.
Assay [3] concerns MALME-3M melanoma.
Assay [4] deals with HOP-62 NSCLC.
Assay [5] deals with CCRF-CEM leukemia.
Assay [6] deals with IGROV1 ovarian.
Assay [7] has as its system SNB-75 CNS.
Assay [8] concerns K-562 leukemia.
Assay [9] deals with MDA-MB-231 breast.
For assay [10], the system named is RPMI-8226 leukemia.

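Where inhibition never reached the appropriate level, the endpoint shown equals the highest concentration tested. Otherwise, values were interpolated linearly from a five-concentration, 48-hour dose response in 96-well plates. TGI: concentration producing complete growth inhibition.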 Bounds are passed on as bounds.

The term TGI denotes the concentration giving total growth inhibition. High values mean less potent growth arrest, low ones more potent growth arrest.

On to `CC(N=NNc1ccc(-c2nc3ccccc3[nH]2)cc1)C(=O)O` (stereo not given), for which the total growth inhibition concentration (TGI) in assay [1], in assay [2], in [3], in [4], in [5] and in [6] was over 100 µM throughout. Moreover, the concentration for total growth inhibition (TGI) in assay [7], in assay [8], in assay [9] and in assay [10] was over 100 µM each time.

Turning to `C=CCn1c(=O)c(C)cn(COCCO)c1=O`, the TGI in [1], in assay [2], in [3], in assay [4], in assay [5] and in assay [6] was over 100 µM in each case. The TGI in assay [7], in assay [8], in assay [9] and in assay [10] was over 100 µM throughout.

For `C[C@H](c1ccccc1)N1C(=O)[C@@H](O)[C@H]1[C@H](CO)OCc1ccccc1`, the TGI in assay [1], in assay [2], in assay [3], in assay [4], in [5] and in assay [6] was over 100 µM in each case. Besides, the TGI in assay [7], in assay [8], in [9] and in assay [10] was over 100 µM throughout.

As for `O=c1[nH]cc(NCCCl)c(=O)[nH]1`, the TGI in assay [1], in assay [2], in assay [3], in [4], in assay [5] and in assay [6] was over 100 µM each time. Besides, the TGI in assay [7], in assay [8], in [9] and in assay [10] was over 100 µM each time.

Turning to `CCOC(=O)c1ccc(-n2[nH]nc(C(N)=O)c2=O)cc1`, the concentration for total growth inhibition (TGI) in [1], in assay [2], in [3], in assay [4], in assay [5] and in assay [6] was over 100 µM in each case. In addition, the TGI in assay [7], in [8], in assay [9] and in assay [10] was over 100 µM throughout.

Regarding `O=C(O)CN(CC(=O)O)C1CCCCC1N1CC(=O)OC(=O)C1` (stereo not given), the TGI in assay [1], in [2], in assay [3], in [4], in [5] and in assay [6] was over 100 µM each time. Also, the total growth inhibition concentration (TGI) in assay [7] is 95.5 µM; in [8], over 100 µM; in assay [9], over 100 µM; in [10], over 100 µM.

As for `CC(C)(C)c1ccc(OCCOc2ccc(C(C)(C)C)cc2N)c(N)c1`, the total growth inhibition concentration (TGI) in assay [1], in assay [2], in assay [3], in assay [4], in [5] and in assay [6] was over 100 µM in each case. The TGI in assay [7], in [8], in assay [9] and in assay [10] was over 100 µM in each case.

Regarding `CC(=O)O[C@H]1CC(C)(C)C(=C=C/C(C)=C/C=C/C=C/C=C(C)/C=C2C=C(/C=C/[C@@]34O[C@]3(C)C[C@@H](O)CC4(C)C)C(=O)O/2)[C@](C)(O)C1`, the TGI worked out at 18.1 µM in assay [1]; 46.5 µM in [2]; 41.9 µM in assay [3]; 32 µM in assay [4]; 10 µM in [5]; 7.72 µM in assay [6]. For the same molecule, the TGI in [7] worked out at 28 µM; in [8], 57.2 µM; in [9], 97.4 µM; in assay [10], 27.9 µM.

The values above are taken from PubChem BioAssay (NCI).
